Measured values taken from patent US20230293405A1, “Compositions Comprising UV-Filters and One or More (Bio)-Alkanediols” (Symrise AG, priority 2020, published 2023).

Legend:
[1] = Solubility of alkanediols in water (visual observation); conditions: assessed at ambient temperature after 24 h storage at 5° C.
Excerpt: The water solubility of a substance is the saturation mass concentration of the substance in water at a given temperature. The determination of the solubility in water relates to essentially pure substances which are stable in water and not volatile.
For the determination of the water solubility of an alkanediol, water and different concentrations of the respective alkanediol were blended by stirring. […] The determination of whether the alkanediol has dissolved in water is based entirely on visual observation.

[2] = Sensory properties of oil component blended with alkanediol, assessed by untrained panelists on the backside of the hand; format: in vivo; conditions: scale 1 (low) to 5 (high absorption)
Excerpt: For evaluating the sensory behavior, oil components specified in the following Table 13 were blended with 1,2-heptanediol or 2,3-heptanediol or a mixture of 1,2-heptanediol and 2,3-heptanediol or 1,2-octanediol or 2,3-octanediol or a mixture of 1,2-octanediol and 2,3-octanediol (formulation) and assessed by untrained panelists in comparison to the oil component without addition of the specified alkanediols (placebo).
Test procedure: • Hands were pre-washed with liquid soap by following a defined procedure; • 30 μl of corresponding sample was applied on the backside of each hand (randomized); • After 30 s the spreading behavior of the respective formulation on skin was evaluated versus the respective oil component without 1,2-heptanediol on a scale from 1 to 5 (1=low spreading; 5=high spreading); • The samples were distributed with the fingertips of middle and forefinger with 2×5 cycles; • After 2 minutes, the fatty/greasy skin feeling was evaluated on a scale from 1 to 5 (1=low fatty/greasy skin feeling; 5=high fatty/greasy skin feeling); • Furthermore, the applicants were asked to assess the absorption, i.e. the impression of amount of remaining residue on the skin on a scale from 1 to 5 (1=low absorption; 5=high absorption).

[3] = in Caprylic Capric Triglyceride (neutral oil)
[4] = in Helianthus Annuus (Sunflower) Seed Oil

With `CCCCCC(O)CO` (stereo not shown) [1,2-heptanediol] the “Maximum solubility in water (% by weight)” value [1] was 2.5 % by weight, the Absorption/remaining residue with ([2]; in Argan Oil) was 2.8 and the Absorption/remaining residue with ([2]; in Avocado Oil) was 2.6. The Absorption/remaining residue with ([2]; in Butyrospermum Parkii (Shea) Butter) was 2.7, the Absorption/remaining residue with ([2]; in Cacao butter) was 3.6 and the Absorption/remaining residue with [2, 3] was 2.7. For the same molecule, the Absorption/remaining residue with ([2]; in Castor Oil) was 4, the Absorption/remaining residue with ([2]; in Cetearyl Nonanoate (SymMollient S)) was 2 and the Absorption/remaining residue with ([2]; in Chlorella oil (biotech)) was 3. It also gave an Absorption/remaining residue with ([2]; in Coconut Oil) of 2, an Absorption/remaining residue with ([2]; in Ethylhexyl Methoxycinnamate (Neo Heliopan AV)) of 3 and an Absorption/remaining residue with ([2]; in Ethylhexyl Salicylate (Neo Heliopan OS)) of 2.2. For the same molecule, the Absorption/remaining residue with ([2]; in Grapeseed Oil) was 2.8, the Absorption/remaining residue with [2, 4] was 2 and the Absorption/remaining residue with ([2]; in Hexyldecanol (Eutanol G)) was 2.7. The Absorption/remaining residue with ([2]; in Homosalate (Neo Heliopan HMS)) was 2.5, the Absorption/remaining residue with ([2]; in Isoamyl p-Methoxycinnamate (Neo Heliopan E 1000)) was 2.5 and the Absorption/remaining residue with ([2]; in Microalgae oil) was 2.5. For the same molecule, the Absorption/remaining residue with ([2]; in Octocrylene (Neo Heliopan 303)) was 2.7, the Absorption/remaining residue with ([2]; in Olive Oil) was 2.4 and the Absorption/remaining residue with ([2]; in Propanediol Dicaprylate/Dicaprate (Symollient PDCC)) was 2.4. For the same molecule, the Absorption/remaining residue with ([2]; in Prunus Amygdalus Dulcis (Sweet Almond) Oil) was 2.2 and the Absorption/remaining residue with ([2]; in Simmondsia Chinensis (Jojoba) Seed Oil) was 2.5.

In the case of `CCCCCCCC(O)CO` (stereo not shown) [1,2-nonanediol], the “Maximum solubility in water (% by weight)” value [1] is reported as 0.1 % by weight.

`CCCCCCC(O)CO` (stereo not shown) [1,2-octanediol] showed an Absorption/remaining residue with ([2]; in Argan Oil) of 2.6, an Absorption/remaining residue with ([2]; in Avocado Oil) of 2.6 and an Absorption/remaining residue with ([2]; in Cacao butter) of 3. It also gave an Absorption/remaining residue with ([2]; in Coconut Oil) of 3, an Absorption/remaining residue with ([2]; in Grapeseed Oil) of 1.6 and an Absorption/remaining residue with [2, 4] of 2. For the same molecule, the Absorption/remaining residue with ([2]; in Olive Oil) was 2.6.

In the case of `CCCCC(O)C(C)O` (stereo not shown) [2,3-heptanediol], the “Maximum solubility in water (% by weight)” value [1] is reported as 3.6 % by weight, the Absorption/remaining residue with ([2]; in Argan Oil) is reported as 2.4 and the Absorption/remaining residue with ([2]; in Avocado Oil) is reported as 2.4. The Absorption/remaining residue with ([2]; in Cacao butter) was 3.2, the Absorption/remaining residue with [2, 3] was 3 and the Absorption/remaining residue with ([2]; in Castor Oil) was 3.8. For the same molecule, the Absorption/remaining residue with ([2]; in Coconut Oil) was 2.4, the Absorption/remaining residue with ([2]; in Grapeseed Oil) was 2.2 and the Absorption/remaining residue with [2, 4] was 2.6. The Absorption/remaining residue with ([2]; in Olive Oil) was 2.

For `CCCCCCC(O)C(C)O` (stereo not shown) [2,3-nonanediol], the “Maximum solubility in water (% by weight)” value [1] was 0.3 % by weight.

With `CCCCCC(O)C(C)O` (stereo not shown) [2,3-octanediol] the “Maximum solubility in water (% by weight)” value [1] was 1.5 % by weight, the Absorption/remaining residue with ([2]; in Argan Oil) was 2.2 and the Absorption/remaining residue with ([2]; in Avocado Oil) was 2.4. It also gave an Absorption/remaining residue with ([2]; in Cacao butter) of 2.8, an Absorption/remaining residue with ([2]; in Castor Oil) of 3 and an Absorption/remaining residue with ([2]; in Coconut Oil) of 2.6. The Absorption/remaining residue with ([2]; in Grapeseed Oil) was 2.4, the Absorption/remaining residue with [2, 4] was 3.4 and the Absorption/remaining residue with ([2]; in Olive Oil) was 2.6.

In the case of `CCCCCCC(O)CO` (stereo not shown) [Hydrolite ® 8, Caprylyl Glycol], the “Maximum solubility in water (% by weight)” value [1] is reported as 0.5 % by weight.
